# Measured values as given in ChEMBL document CHEMBL1201862, “PubChem BioAssay data set” (2004).
#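 48-hour exposure; five concentrations; linearly interpolated endpoints. At the GI50, growth is halved.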 Active and inactive are the calls of the source. Cut-off read from the data, not from the text of the source: active = GI50 up to about 1.1 µM and inactive = higher.
# Tests used:
# Experiment in all cases: NCI tumour cell line growth inhibition, 48 h
# SK-MEL-28 = tested on: SK-MEL-28
# SK-MEL-2 = tested on: SK-MEL-2
# NCI/ADR-RES = tested on: NCI/ADR-RES
# TK-10 = tested on: TK-10
# M14 = tested on: M14
# OVCAR-3 = tested on: OVCAR-3
# CAKI-1 = tested on: CAKI-1
# ACHN = tested on: ACHN
# SK-OV-3 = tested on: SK-OV-3
# HL-60 = tested on: HL-60
# MDA-N = tested on: MDA-N
# 786-0 = tested on: 786-0
# RPMI-8226 = tested on: RPMI-8226
# UO-31 = tested on: UO-31
# NCI-H522 = tested on: NCI-H522
# MCF7 = tested on: MCF7
# OVCAR-5 = tested on: OVCAR-5
# T47D = tested on: T47D
# HOP-92 = tested on: HOP-92
# A498 = tested on: A498
SMILES,GI50 (SK-MEL-28),GI50 (SK-MEL-2),GI50 (NCI/ADR-RES),GI50 (TK-10),GI50 (M14),GI50 (OVCAR-3),GI50 (CAKI-1),GI50 (ACHN),GI50 (SK-OV-3),GI50 (HL-60),GI50 (MDA-N),GI50 (786-0),GI50 (RPMI-8226),GI50 (UO-31),GI50 (NCI-H522),GI50 (MCF7),GI50 (OVCAR-5),GI50 (T47D),GI50 (HOP-92),GI50 (A498)
NCc1ccccc1.O=C(O)NCc1ccccc1,38.2 µM (inactive),8.91 µM (inactive),26.9 µM (inactive),31.4 µM (inactive),33.9 µM (inactive),31.4 µM (inactive),42.7 µM (inactive),35.9 µM (inactive),37.5 µM (inactive),26.7 µM (inactive),29.5 µM (inactive),36.3 µM (inactive),12.6 µM (inactive),24.3 µM (inactive),21.8 µM (inactive),34.8 µM (inactive),30.1 µM (inactive),23.9 µM (inactive),19.6 µM (inactive),29 µM (inactive)
Cc1cc2c(=Cc3ccc(N(C)C)cc3)c3ccccc3n2[n+]1C,1.2 µM (inactive),0.652 µM (active),> 66.4 µM (inactive),1.3 µM (inactive),1.05 µM (active),0.313 µM (active),3.3 µM (inactive),2.23 µM (inactive),1.44 µM (inactive),1.39 µM (inactive),0.383 µM (active),0.607 µM (active),0.107 µM (active),3.01 µM (inactive),0.335 µM (active),0.396 µM (active),5.87 µM (inactive),0.282 µM (active),0.459 µM (active),1.87 µM (inactive)
CN(C)c1ccc(Cc2cc3c(O)ccc(O)c3cc(Cc3ccc(N(C)C)cc3)c2=O)cc1,18.9 µM (inactive),36.6 µM (inactive),27 µM (inactive),18.6 µM (inactive),17.5 µM (inactive),14.3 µM (inactive),6.46 µM (inactive),12.5 µM (inactive),> 100 µM (inactive),3.04 µM (inactive),18.8 µM (inactive),16 µM (inactive),6.25 µM (inactive),13.1 µM (inactive),3.73 µM (inactive),17.3 µM (inactive),> 43.9 µM (inactive),4.09 µM (inactive),3.08 µM (inactive),46.1 µM (inactive)
Cc1ccc(CC(=O)Nc2ccc(NC(=O)CNC(=O)/C=C/c3ccc(-c4ccccc4)cc3)cc2C(=O)c2ccccc2)cc1,11.7 µM (inactive),13.9 µM (inactive),9.71 µM (inactive),2.08 µM (inactive),4.81 µM (inactive),4.98 µM (inactive),4.9 µM (inactive),4.8 µM (inactive),10.7 µM (inactive),7.45 µM (inactive),4.74 µM (inactive),2.28 µM (inactive),10.4 µM (inactive),11.8 µM (inactive),5.13 µM (inactive),1.82 µM (inactive),4.48 µM (inactive),1.76 µM (inactive),4.17 µM (inactive),0.989 µM (active)
O=C1OC2C(O)COC2(O)C1(O)C(C[N+](=O)[O-])c1ccc(Cl)cc1 (stereo not given),3.52 µM (inactive),15.7 µM (inactive),21.9 µM (inactive),12.5 µM (inactive),2.58 µM (inactive),7.19 µM (inactive),15.5 µM (inactive),12.4 µM (inactive),17.1 µM (inactive),1.76 µM (inactive),2.76 µM (inactive),1.82 µM (inactive),0.959 µM (active),8.79 µM (inactive),9.27 µM (inactive),1.98 µM (inactive),16.4 µM (inactive),13.8 µM (inactive),28.7 µM (inactive),4.8 µM (inactive)
Cc1cc(/N=C/c2ccc(Cl)cc2)n(-c2ccccc2)n1,44.6 µM (inactive),53.5 µM (inactive),40.9 µM (inactive),40.3 µM (inactive),48.6 µM (inactive),22.8 µM (inactive),39 µM (inactive),47.2 µM (inactive),67.9 µM (inactive),26 µM (inactive),32.2 µM (inactive),37.3 µM (inactive),24.6 µM (inactive),59 µM (inactive),23.1 µM (inactive),32.2 µM (inactive),87.5 µM (inactive),16.7 µM (inactive),48 µM (inactive),21.9 µM (inactive)
COC(=O)c1ccc2n1C1CC3CC(CC2C3)C1,> 100 µM (inactive),70.6 µM (inactive),> 100 µM (inactive),> 100 µM (inactive),> 100 µM (inactive),> 100 µM (inactive),> 100 µM (inactive),> 100 µM (inactive),> 100 µM (inactive),15.3 µM (inactive),> 100 µM (inactive),> 100 µM (inactive),42.8 µM (inactive),> 100 µM (inactive),> 100 µM (inactive),> 100 µM (inactive),> 100 µM (inactive),53.6 µM (inactive),24.8 µM (inactive),> 100 µM (inactive)
CCOC(=O)c1cccc([N+](=O)[O-])c1N,> 100 µM (inactive),> 100 µM (inactive),> 100 µM (inactive),> 100 µM (inactive),> 100 µM (inactive),> 100 µM (inactive),> 100 µM (inactive),> 100 µM (inactive),> 100 µM (inactive),> 100 µM (inactive),> 100 µM (inactive),> 100 µM (inactive),> 100 µM (inactive),> 100 µM (inactive),> 100 µM (inactive),> 100 µM (inactive),> 100 µM (inactive),> 100 µM (inactive),> 100 µM (inactive),66.2 µM (inactive)
O=C(C1OC1c1cccc([N+](=O)[O-])c1)C12CC3CC(CC(C3)C1)C2 (stereo not given),12.3 µM (inactive),14.3 µM (inactive),3.24 µM (inactive),18.1 µM (inactive),8.99 µM (inactive),3.81 µM (inactive),8.83 µM (inactive),9.59 µM (inactive),16.9 µM (inactive),2.43 µM (inactive),3.19 µM (inactive),2.69 µM (inactive),2.13 µM (inactive),8.26 µM (inactive),3.81 µM (inactive),2.86 µM (inactive),7.21 µM (inactive),11.7 µM (inactive),10.9 µM (inactive),5.13 µM (inactive)
CCOC(=O)NC(Nc1ccc([N+](=O)[O-])cc1)(C(F)(F)F)C(F)(F)F,> 100 µM (inactive),> 100 µM (inactive),30.8 µM (inactive),69.8 µM (inactive),60.4 µM (inactive),65.8 µM (inactive),82.4 µM (inactive),> 100 µM (inactive),56.5 µM (inactive),54.1 µM (inactive),22 µM (inactive),> 100 µM (inactive),99.3 µM (inactive),27 µM (inactive),25.1 µM (inactive),60.7 µM (inactive),> 100 µM (inactive),58.3 µM (inactive),31.1 µM (inactive),91.2 µM (inactive)
Oc1cc(Br)cc2cc(Cl)cnc12,3.29 µM (inactive),22.3 µM (inactive),1.21 µM (inactive),28.5 µM (inactive),1.35 µM (inactive),1.95 µM (inactive),7.55 µM (inactive),1.95 µM (inactive),30.2 µM (inactive),0.463 µM (active),3.45 µM (inactive),8.71 µM (inactive),2.54 µM (inactive),1.48 µM (inactive),2.35 µM (inactive),3.33 µM (inactive),18.7 µM (inactive),3.21 µM (inactive),23.4 µM (inactive),8.26 µM (inactive)
CCSCCCCC(c1ccc(O)cc1)C(C)(CC)c1ccc(O)cc1 (stereo not given),18 µM (inactive),16 µM (inactive),20.3 µM (inactive),17.4 µM (inactive),31 µM (inactive),18.2 µM (inactive),35 µM (inactive),18.6 µM (inactive),21.1 µM (inactive),> 100 µM (inactive),23.2 µM (inactive),24.4 µM (inactive),19.5 µM (inactive),19.6 µM (inactive),17.7 µM (inactive),27.4 µM (inactive),24.4 µM (inactive),14.4 µM (inactive),19.3 µM (inactive),> 100 µM (inactive)
COc1cc2c(SCCN(C)C)nc3ccccc3c2c2ccccc12,1.78 µM (inactive),1.87 µM (inactive),5.38 µM (inactive),2.7 µM (inactive),1.68 µM (inactive),2.34 µM (inactive),1.88 µM (inactive),1.78 µM (inactive),10.4 µM (inactive),0.193 µM (active),2.19 µM (inactive),1.93 µM (inactive),1.76 µM (inactive),2.26 µM (inactive),1.68 µM (inactive),1.66 µM (inactive),1.64 µM (inactive),2.7 µM (inactive),1.73 µM (inactive),10.7 µM (inactive)
COc1cc(/C=C2\CC3C4CC[C@H]5C[C@@H](O)CC[C@]5(C)C4CC[C@]3(C)\C2=N\O)cc(OC)c1OC (stereo not given in full),14.7 µM (inactive),11.7 µM (inactive),12.9 µM (inactive),16.8 µM (inactive),14.4 µM (inactive),3.27 µM (inactive),4.09 µM (inactive),6.59 µM (inactive),19.2 µM (inactive),3.46 µM (inactive),14.8 µM (inactive),7.96 µM (inactive),4.23 µM (inactive),3.44 µM (inactive),13.1 µM (inactive),4.05 µM (inactive),22.1 µM (inactive),4.73 µM (inactive),15.2 µM (inactive),11.2 µM (inactive)
